Assay results from patent US20120302573A1, “METHODS OF INHIBITING PRO MATRIX METALLOPROTEINASE ACTIVATION” (priority 2011, published 2012).
Structures can show the parent of a compound that is named as a salt.

How the values were obtained:
[1] = molecular target: T1, proMMP9(67-444;ΔFnII) (SEQ ID NO:5) (Homo sapiens, UniProt P14780, DEL216-390); test: ThermoFluor binding assay with proMMP9(67-444;ΔFnII)
T1 construct: amino acid pairs including: 29-215/391-444, 67-215/391-444, and 20-215/391-445, respectively; start methionine (N); made in house; host or cells: E. coli BL21(DE3) RIL
T1 sequence (P14780 with tags, fused parts or gaps DEL216-390): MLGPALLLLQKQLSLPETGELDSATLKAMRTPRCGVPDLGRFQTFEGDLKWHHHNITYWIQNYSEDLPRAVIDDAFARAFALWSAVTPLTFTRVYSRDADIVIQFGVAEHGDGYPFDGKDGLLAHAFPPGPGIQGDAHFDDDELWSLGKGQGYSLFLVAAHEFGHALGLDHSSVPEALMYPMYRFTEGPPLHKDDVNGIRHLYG
Outline: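 Thermal shift (ThermoFluor) with 1,8-ANS dye; protein desalted by buffer exchange before use. Samples heated 40 to 90 °C at 1 °C/min, excitation 380-400 nm, emission 500±25 nm. Binding fitted using unfolding thermodynamic parameters from DSC and ThermoFluor dosing data.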

[2] = molecular target: T2, proMMP9(20-445;ΔFnII) (SEQ ID NO:6) (Homo sapiens, UniProt P14780, DEL216-390); test: ThermoFluor binding assay with proMMP9(20-445;ΔFnII)
T2 construct: amino acid pairs including: 29-215/391-444, 67-215/391-444, and 20-215/391-445, respectively; start methionine (N); made in house; host or cells: E. coli BL21(DE3) RIL
T2 sequence (P14780 with tags, fused parts or gaps DEL216-390): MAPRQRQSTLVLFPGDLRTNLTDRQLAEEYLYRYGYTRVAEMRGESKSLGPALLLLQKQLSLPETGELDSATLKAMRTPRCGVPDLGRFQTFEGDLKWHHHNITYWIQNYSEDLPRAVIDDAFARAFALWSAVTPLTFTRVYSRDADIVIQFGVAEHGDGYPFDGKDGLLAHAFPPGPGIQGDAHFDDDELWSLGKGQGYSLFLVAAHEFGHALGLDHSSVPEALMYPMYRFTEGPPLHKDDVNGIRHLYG
Outline: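 Thermal shift with 1,8-ANS dye, heating from 40 to 90 °C at 1 °C/min. Fluorescence excited at 380–400 nm and read at 500±25 nm. Protein was buffer-exchanged by desalting, and binding fitted using heat capacity and thermodynamic parameters from DSC and ThermoFluor dosing data, with DMSO reference wells.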

[3] = molecular target: T3, full-length proMMP9(1-707) activation by catalytic MMP3 (Homo sapiens, UniProt P14780, R574P); test: proMMP9/MMP3 P126 Activation Assay; format: biochemical; set-up: made in house; host or cells: E. coli (MMP3); conditions: proMMP9 from HEK293 cells
T3 sequence (P14780 20-707 R574P): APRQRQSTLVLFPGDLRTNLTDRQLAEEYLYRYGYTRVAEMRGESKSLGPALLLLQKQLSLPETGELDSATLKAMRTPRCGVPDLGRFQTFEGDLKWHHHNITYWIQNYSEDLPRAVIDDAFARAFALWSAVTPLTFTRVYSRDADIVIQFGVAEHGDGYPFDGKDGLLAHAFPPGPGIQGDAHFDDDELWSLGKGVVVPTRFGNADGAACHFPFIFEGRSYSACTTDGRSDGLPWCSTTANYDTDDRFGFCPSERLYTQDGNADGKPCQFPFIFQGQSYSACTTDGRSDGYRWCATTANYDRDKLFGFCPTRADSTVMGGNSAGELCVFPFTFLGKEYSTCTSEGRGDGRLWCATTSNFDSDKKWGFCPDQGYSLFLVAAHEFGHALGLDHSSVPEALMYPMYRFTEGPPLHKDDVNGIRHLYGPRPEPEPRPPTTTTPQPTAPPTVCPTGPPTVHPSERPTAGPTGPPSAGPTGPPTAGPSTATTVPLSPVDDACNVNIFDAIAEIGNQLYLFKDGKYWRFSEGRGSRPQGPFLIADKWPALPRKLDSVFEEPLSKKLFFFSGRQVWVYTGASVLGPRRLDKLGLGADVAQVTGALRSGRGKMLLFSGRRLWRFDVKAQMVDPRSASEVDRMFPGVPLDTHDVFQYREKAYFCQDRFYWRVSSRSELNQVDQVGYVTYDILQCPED
Experimental: The assay buffer employed was 50 mM Hepes, pH 7.5, 10 mM CaCl2, 0.05% Brij-35. DMSO was included at a final concentration of 2%, arising from the test compound addition. […] The reaction volume was 50 μL. […] Initial velocities were plotted by use of a four-parameter logistics equation (GraphPad Prism® software) for determination of IC50.

[4] = molecular target: T4, human catalytic MMP3, MMP3(100-265) (Homo sapiens, UniProt P08254); test: Catalytic MMP3 enzyme assay (fluorogenic peptide M2110); format: biochemical
T4 construct: Catalytic MMP3 was amino acids 100-265 of human MMP3 from UniProtKB/Swiss-Prot P08254; 6x-Histidine tag (C); made in house; host or cells: E. coli
T4 sequence (P08254 with tags, fused parts or gaps): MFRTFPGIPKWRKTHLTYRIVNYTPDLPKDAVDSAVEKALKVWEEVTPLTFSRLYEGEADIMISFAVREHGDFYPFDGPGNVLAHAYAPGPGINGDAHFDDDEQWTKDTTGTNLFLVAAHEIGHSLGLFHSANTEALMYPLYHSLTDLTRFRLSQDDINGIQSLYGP
Experimental: Compounds were assessed for inhibition of human catalytic MMP3, MMP3(100-265) (SEQ ID NO:8), using a peptide (Mca-RPKPVE-Nva-WRK(Dnp)-NH2, Bachem M2110) that fluoresces upon cleavage by catalytic MMP3. […] The reaction volume was 100 μL. […] Final concentrations employed were 20 nM catalytic MMP3 and 20 μM M2110 substrate.

human catalytic MMP9 = molecular target: T5, human catalytic MMP9 (Homo sapiens, UniProt P14780); test: Catalytic MMP9 enzyme assay (fluorogenic peptide P-126); format: biochemical
T5 construct: purchased BioMol SE-244
T5 sequence (P14780 107-445 limits assumed): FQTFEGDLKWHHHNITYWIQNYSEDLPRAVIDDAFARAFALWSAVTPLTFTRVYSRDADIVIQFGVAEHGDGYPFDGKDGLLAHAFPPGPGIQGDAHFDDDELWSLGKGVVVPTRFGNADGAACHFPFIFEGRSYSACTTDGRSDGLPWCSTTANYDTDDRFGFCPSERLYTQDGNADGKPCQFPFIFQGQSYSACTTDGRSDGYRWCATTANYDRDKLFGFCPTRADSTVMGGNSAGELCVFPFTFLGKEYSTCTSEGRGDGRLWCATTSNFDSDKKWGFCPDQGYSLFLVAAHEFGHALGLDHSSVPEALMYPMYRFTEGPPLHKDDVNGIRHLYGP
Experimental: The assay buffer employed was 50 mM Hepes, pH 7.5, 10 mM CaCl2, 0.05% Brij-35. DMSO was included at a final concentration of 2%, arising from the test compound addition. The reaction volume was 100 μL. […] Initial velocities were plotted by use of a four-parameter logistics equation (GraphPad Prism® software) for determination of IC50, if required.

[5] = molecular target: T6, proMMP13(1-268) (SEQ ID NO:7) (Homo sapiens, UniProt P45452); test: ThermoFluor binding assay with proMMP13(1-268)
T6 construct: 6x-histidine tag (C); made in house; host or cells: HEK293
Experimental: The ThermoFluor® (TF) assay is a 384-well plate-based binding assay that measures thermal stability of proteins (Biomol Screen 2001, 6, 429-40; Biochemistry 2005, 44, 5258-66). The experiments were carried out using instruments available from Johnson & Johnson Pharmaceutical Research & Development, LLC. TF dye used in all experiments was […] (1,8-ANS) (Invitrogen: A-47).
Compounds were arranged in a pre-dispensed plate (Greiner Bio-one: 781280), wherein compounds were serially diluted in 100% DMSO across 11 columns within a series. Columns 12 and 24 were used as DMSO reference and contained no compound. For multiple compound concentration-response experiments, the compound aliquots ([…]) were robotically predispensed directly into black 384-well polypropylene PCR microplates (Abgene: TF-0384/k) using a Cartesian Hummingbird liquid handler (DigiLab, Holliston, Mass.). Following compound dispense, protein and dye solutions were added to achieve the final assay volume of 3 μL. The assay solutions were overlayed with 1 μL of silicone oil (Fluka, type DC 200: 85411) to prevent evaporation.
Assay plates were robotically loaded onto a thermostatically controlled PCR-type thermal block and then heated from 40 to 90° C. at a ramp-rate of 1° C./min for all experiments. Fluorescence was measured by continuous illumination with UV light (Hamamatsu LC6) supplied via fiber optics and filtered through a band-pass filter (380-400 nm; >6 OD cutoff). Fluorescence emission of the entire 384-well plate was detected by measuring light intensity using a CCD camera (Sensys, Roper Scientific) filtered to detect 500±25 nm, resulting in simultaneous and independent readings of all 384 wells. A single image with 20-sec exposure time was collected at each temperature, and the sum of the pixel intensity in a given area of the assay plate was recorded vs temperature and fit to standard equations to yield the Tm (J Biomol Screen 2001, 6, 429-40).
Thermodynamic parameters necessary for fitting compound binding for each proMMP were estimated by differential scanning calorimetry (DSC) and from ThermoFluor® data. The heat capacity of unfolding for each protein was estimated from the molecular weight and from ThermoFluor® dosing data.
The proMMP13(1-268) (SEQ ID NO:7) protein sample preparations included a desalting buffer exchange step via a PD-10 gravity column (GE Healthcare). The desalting buffer exchange was performed prior to diluting the protein to the final assay concentration of 3.5 μM. The concentration of proMMP13(1-268) (SEQ ID NO:7) was estimated spectrophotometrically based on a calculated extinction coefficient of ε280=37000 M^−1 cm^−1, a calculated molecular weight of 30.8 kDa, and calculated pI of 5.33. ThermoFluor® reference conditions were defined as follows: 100 μg/mL proMMP13(1-268) (SEQ ID NO:7), 25 μM 1,8-ANS, pH 7.0 Buffer (50 mM HEPES pH 7.0, 100 mM NaCl, 0.001% Tween-20, 2.5 mM MgCl2, 300 μM CaCl2). The thermodynamic parameters for proMMP13(1-268) (SEQ ID NO:7) are as follows: Tm (° C.)=67 (+/−0.1), ΔUH(Tm) (cal mol^−1)=107000(+/−5000), ΔUS(Tm) (cal mol^−1 K^−1)=318, ΔUCp (cal mol^−1 K^−1)=2600.

[6] = molecular target: T3, full-length proMMP9(1-707) activation by catalytic MMP3; test: ProMMP9/MMP3 DQ Gelatin Activation Assay;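 also: readout is fluorescence of quenched fluorescein gelatin cut by activated MMP9, 30 min activation at 37 °C, inhibition relative to DMSO-only controls with EDTA as blank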; format: biochemical; set-up: made in house; host or cells: COS-1 (proMMP9); E. coli (MMP3); conditions: proMMP9 from COS-1 cells; read-out: ProMMP9/MMP3 DQ gel, IC50
Experimental: Compounds were assessed for inhibition of proMMP9 activation by catalytic MMP3 using a quenched fluorescein gelatin substrate (DQ gelatin, Invitrogen D12054) that fluoresces upon cleavage by activated MMP9. The assay buffer employed was 50 mM Hepes, pH 7.5, 10 mM CaCl2, 0.05% Brij-35. DMSO was included at a final concentration of 0.2%, arising from the test compound addition. […] Test compounds in DMSO were diluted 250-fold in assay buffer at 4× the final concentration. The reaction volume was 12 μL, and all reactions were conducted in triplicate. […] The plate was sealed and incubated for 30 min at 37° C. […] Immediately following the 30 min incubation, 4 μL of 40 μg/ml DQ gelatin substrate was added (freshly diluted in assay buffer), and incubated for 10 min at room temperature. […] Reactivity of residual MMP3 towards DQ gelatin was minimal under these conditions. Percent inhibition of test compounds were determined from suitable positive (DMSO only in assay buffer) and negative (EDTA added prior to reaction initiation) controls. Plots of % inhibition vs. test compound concentration were fit to a four-parameter logistics equation (GraphPad Prism® software) for determination of IC50.

| Kd [1] [nM] | Kd [2] [µM] | IC50 [3] [nM] | IC50 [4] [µM] | IC50 (human catalytic MMP9) [µM] | Kd [5] [µM] | IC50 [6] [nM] | Compound |
| --- | --- | --- | --- | --- | --- | --- | --- |
| 140 | 4.48 | 2800 |  |  | 3.57 |  | COc1ccc(Br)cc1Nc1nc(-c2sc(NC(C)=O)nc2C)cs1 [Example 21, N-[2-(5-Bromo-2-methoxy-phenylamino)-4′-methyl-[4,5′]bithiazolyl-2′-yl]-acetamide.HBr] |
| 583 | 29.2 | 520 | > 50 | > 50 |  | 340 | COc1ccc(Cl)cc1Nc1nc(-c2sc(NC(C)=O)nc2C)cs1 [Example 59, N-[2-(5-Chloro-2-methoxy-phenylamino)-4′-methyl-[4,5′]bithiazolyl-2′-yl]-acetamide] |
|  |  |  | > 50 |  | 37.5 |  | COc1ccccc1Nc1nc(-c2sc(NC(C)=O)nc2C)cs1 [Example 65, N-[2-(2-Methoxy-phenylamino)-4′-methyl-[4,5′]bithiazolyl-2′-yl]-acetamide] |
| 318 | 2.43 | 2100 | > 50 | > 50 |  |  | COc1ccc(Cl)cc1Nc1nc(-c2sc(N)nc2C)cs1 [Example 67, N^2-(5-Chloro-2-methoxy-phenyl)-4′-methyl-[4,5′]bithiazolyl-2,2′-diamine] |

The remaining lines, values behind:

| Compound | Kd [1] [nM] | Kd [2] [µM] | IC50 [3] [nM] | IC50 [4] [µM] | IC50 (human catalytic MMP9) [µM] | Kd [5] [µM] | IC50 [6] [nM] |
| --- | --- | --- | --- | --- | --- | --- | --- |
| COc1ccc(F)cc1Nc1nc(-c2sc(N)nc2C)cs1 [Example 4, N^2-(5-Fluoro-2-methoxy-phenyl)-4′-methyl-[4,5′]bithiazolyl-2,2′-diamine.HBr] | 254 | 1.7 | 1500 | > 50 | > 50 |  |  |
| CC(=O)Nc1nc(C)c(-c2csc(Nc3cc(F)ccc3OC(C)C)n2)s1 [Example 12, N-[2-(5-Fluoro-2-isopropoxy-phenylamino)-4′-methyl-[4,5′]bithiazolyl-2′-yl]-acetamide] | 2920 | 13.8 | 3600 |  |  | 12 |  |
| Cc1nc(C)c(-c2csc(Nc3cc(F)ccc3OC(C)C)n2)s1 [Example 13, (2′,4′-Dimethyl-[4,5′]bithiazolyl-2-yl)-(5-fluoro-2-isopropoxy-phenyl)-amine] | > 95000 | > 95 | ~2000 |  |  | > 95 |  |
| COc1ccc(F)cc1Nc1nc(-c2cccnc2)cs1 [Example 16, (5-Fluoro-2-methoxy-phenyl)-(4-pyridin-3-yl-thiazol-2-yl)-amine.HBr] | 8900 | > 95 | 3600 |  |  | > 95 |  |
| COc1ccccc1Nc1nc(-c2sc(NS(C)(=O)=O)nc2C)cs1 [Example 34, N-[2-(2-Methoxy-phenylamino)-4′-methyl-[4,5′]bithiazolyl-2′-yl]-methanesulfonamide] | 820 | 3.64 | 4000 |  |  | 43.5 | 2300 |
| COc1ccccc1Nc1nc(-c2sc(C)cc2C)cs1 [Example 45, [4-(3,5-Dimethyl-thiophen-2-yl)-thiazol-2-yl]-(2-methoxy-phenyl)-amine.TFA] | 10000 | 1.65 | > 50000 |  |  | > 95 | > 20000 |
| COc1ccccc1Nc1nc(-c2sc(N)nc2C)cs1 [Example 68, N^2-(2-Methoxy-phenyl)-4′-methyl-[4,5′]bithiazolyl-2,2′-diamine] | 1120 | 3.76 | 2500 |  |  | 14.5 | 3100 |
| Brc1ccc(Nc2nc(-c3cccnc3)cs2)cn1 [Example 70, (6-Bromo-pyridin-3-yl)-(4-pyridin-3-yl-thiazol-2-yl)-amine] | 12000 | 5.79 | > 20000 |  |  | 0.668 |  |
